This is an account of results in patent publication US20240398828A1, “HETERO-ATOM CONTAINING COMPOUNDS AND USES THEREOF” (Kumquat Biosciences Inc., priority 2021, published 2024).

The target in one experiment is T1, PTPN2 (i.e., TC-PTP) (Homo sapiens, UniProt P17706).
T1 sequence (P17706 1-415): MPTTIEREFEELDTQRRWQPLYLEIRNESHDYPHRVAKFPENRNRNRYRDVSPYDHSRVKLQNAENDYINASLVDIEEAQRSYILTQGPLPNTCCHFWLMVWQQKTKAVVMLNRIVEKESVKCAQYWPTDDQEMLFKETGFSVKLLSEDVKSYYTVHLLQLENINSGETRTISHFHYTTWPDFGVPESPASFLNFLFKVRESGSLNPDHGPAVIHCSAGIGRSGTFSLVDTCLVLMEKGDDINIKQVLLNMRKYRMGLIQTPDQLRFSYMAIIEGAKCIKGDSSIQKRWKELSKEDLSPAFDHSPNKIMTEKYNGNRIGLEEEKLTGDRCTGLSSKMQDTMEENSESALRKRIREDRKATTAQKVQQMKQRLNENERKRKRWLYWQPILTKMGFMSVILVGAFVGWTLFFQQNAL
As to the kind of experiment: Phosphatase activity assay (DiFMUP substrate), PTPN2. The class given is biochemical. The following applies: compounds binned ≤1 uM or >1 uM. The method in brief:
(§1)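 Continuous fluorogenic readout of DiFMUP dephosphorylation at room temperature, substrate set at Km for each phosphatase (about 45 μM in the PTPN2 assay). The buffer contains 1 mM DTT and 0.001% Tween-20, pH 7.5.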

A further experiment has as its target T2, PTPN1 (i.e., PTP1B) (Homo sapiens, UniProt P18031).
T2 sequence (P18031 1-435): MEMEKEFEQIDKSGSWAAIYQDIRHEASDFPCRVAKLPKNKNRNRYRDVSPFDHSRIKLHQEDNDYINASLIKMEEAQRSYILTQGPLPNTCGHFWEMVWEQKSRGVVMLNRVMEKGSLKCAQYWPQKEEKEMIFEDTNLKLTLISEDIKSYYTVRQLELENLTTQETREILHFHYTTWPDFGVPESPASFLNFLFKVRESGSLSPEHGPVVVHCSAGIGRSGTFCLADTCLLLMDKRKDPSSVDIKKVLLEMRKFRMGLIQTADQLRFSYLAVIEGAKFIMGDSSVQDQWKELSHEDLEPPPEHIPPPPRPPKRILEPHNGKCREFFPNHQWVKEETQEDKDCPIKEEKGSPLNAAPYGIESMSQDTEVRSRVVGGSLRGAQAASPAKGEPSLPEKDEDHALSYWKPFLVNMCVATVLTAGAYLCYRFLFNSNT
Nature of the experiment: Phosphatase activity assay (DiFMUP substrate), PTP1B. Particulars: compounds binned ≤1 uM or >1 uM. Type of experiment: biochemical. The method in brief:
as §1

Broadly, the IC50 is the concentration that inhibits the measured activity by half.

Molecules are shown by their SMILES. A value given as a limit tells only on which side of the number the result lay.

`O=C1CN(c2c(O)ccc(-c3nnc(C4CC4)[nH]3)c2F)S(=O)(=O)N1` [Compound 235, 5-(3-(5-cyclopropyl-4H-1,2,4-triazol-3-yl)-2-fluoro-6-hydroxyphenyl)-1,2,5-thiadiazolidin-3-one 1,1-dioxide]: the IC50 is ≤ 1 µM at PTPN2 (i.e., TC-PTP) and ≤ 1 µM at PTPN1 (i.e., PTP1B).

As to `CC(C)CCn1cc(-c2cc(F)c(O)c(N3CC(=O)NS3(=O)=O)c2)cn1` [Compound 153, 5-(3-fluoro-2-hydroxy-5-(1-isopentyl-1H-pyrazol-4-yl)phenyl)-1,2,5-thiadiazolidin-3-one 1,1-dioxide], the IC50 at PTPN2 (i.e., TC-PTP) was > 1 µM; on PTPN1 (i.e., PTP1B) it was ≤ 1 µM.

As for `O=C1CN(c2c(O)ccc(-c3cnn(CCO)c3)c2F)S(=O)(=O)N1` [Compound 140, 5-(2-fluoro-6-hydroxy-3-(1-(2-hydroxyethyl)-1H-pyrazol-4-yl)phenyl)-1,2,5-thiadiazolidin-3-one 1,1-dioxide], the IC50 at PTPN2 (i.e., TC-PTP) is ≤ 1 µM; at PTPN1 (i.e., PTP1B) it was ≤ 1 µM.

For `O=C1CN(c2c(O)ccc(-c3ccc(OCC4CC4)nc3)c2F)S(=O)(=O)N1` [Compound 166, 5-(3-(6-(cyclopropylmethoxy)pyridin-3-yl)-2-fluoro-6-hydroxyphenyl)-1,2,5-thiadiazolidin-3-one 1,1-dioxide], the IC50 on PTPN2 (i.e., TC-PTP) was ≤ 1 µM; at PTPN1 (i.e., PTP1B), ≤ 1 µM.
